The text below walks through data of article PMC12363792 (bioRxiv, 2025).

SMILES strings stand for the structures.

Experiment [1] addresses D2R (Homo sapiens, UniProt P14416). The class given is cell-based. Particulars: D2R vs D3R.
The subject of experiment [2] is CA1 hippocampal neurons. The experiment in a line: 2-photon FRET cAMP imaging in acute brain slices. The class given is cell-based, mice. The note with it: bath application 100 nM, CaMKIIα-Cre:CAMPER+/− slices.
Experiment [3] concerns D2R. Particulars: cited from earlier work.

Sequence of D2R (Homo sapiens, UniProt P14416) (P14416 whole entry): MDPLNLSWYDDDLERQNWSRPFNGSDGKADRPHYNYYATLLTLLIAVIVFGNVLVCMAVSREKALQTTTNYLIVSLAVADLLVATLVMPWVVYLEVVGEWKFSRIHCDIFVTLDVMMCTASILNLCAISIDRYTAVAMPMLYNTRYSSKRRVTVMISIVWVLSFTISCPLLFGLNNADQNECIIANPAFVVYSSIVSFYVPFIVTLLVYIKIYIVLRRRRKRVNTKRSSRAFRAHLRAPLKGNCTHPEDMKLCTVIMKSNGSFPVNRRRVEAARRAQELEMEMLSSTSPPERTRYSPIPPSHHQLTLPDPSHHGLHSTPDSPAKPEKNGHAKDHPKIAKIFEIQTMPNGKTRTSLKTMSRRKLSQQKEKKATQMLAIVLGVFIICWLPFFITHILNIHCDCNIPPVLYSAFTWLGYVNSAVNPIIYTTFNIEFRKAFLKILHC

As to `CN[C@@H]1Cc2cccc3[nH]c(=O)n(c23)C1` [sumanirole], the “activation of GoA via D2R compared to D3R” value in experiment [1] is reported as “five”. For the same compound, the “agonist-induced cAMP response” value in experiment [2] is “robust inhibition of cAMP”. The “affinity for D2R over D3R” value in experiment [3] is given as 200 fold.

Consider `COc1ccc(OCCN2CCN(C(=O)c3cc4ccccc4[nH]3)CC2)cc1` [ML417], for which the “agonist-induced cAMP response” value in experiment [2] was “increase in cAMP production”.
